Read-outs that look alike come from different tables or passages of the source.
Biological target: T1, HRP Type VIA (Armoracia rusticana, UniProt P00433)
T1 sequence (P00433 31-338): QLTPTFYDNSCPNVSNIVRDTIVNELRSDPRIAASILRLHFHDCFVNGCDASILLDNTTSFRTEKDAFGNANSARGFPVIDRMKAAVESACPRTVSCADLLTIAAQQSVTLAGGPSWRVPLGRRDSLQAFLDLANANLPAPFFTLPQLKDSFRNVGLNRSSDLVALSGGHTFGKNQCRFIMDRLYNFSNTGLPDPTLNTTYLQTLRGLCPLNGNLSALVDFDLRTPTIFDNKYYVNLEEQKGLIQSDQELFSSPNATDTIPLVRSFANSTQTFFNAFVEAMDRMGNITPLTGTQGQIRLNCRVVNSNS
Conditions: for (d) Signal: Background: ratio (control = with no enhancer): control value in brackets not reported

Molecule	(a) Decrease in background (without HRP with test cpd.) (0.01 mg/ml, 10µl test compound)	(b) Increase in signal (with HRP, with test cpd.) (0.01 mg/ml, 10µl test compound)	(c) Increase in signal: background ratio (0.01 mg/ml, 10µl test compound)	(d) Signal: Background: ratio (control = with no enhancer) (0.01 mg/ml, 10µl test compound)	(a) Decrease in background (without HRP with test cpd.) (0.1 mg/ml, 10µl test compound)	(b) Increase in signal (with HRP, with test cpd.) (0.1 mg/ml, 10µl test compound)	(d) Signal: Background: ratio (control = with no enhancer) (0.1 mg/ml, 10µl test compound)	(a) Decrease in background (without HRP with test cpd.) (1 mg/ml, 10µl test compound)	(b) Increase in signal (with HRP, with test cpd.) (1 mg/ml, 10µl test compound)	(c) Increase in signal: background ratio (1 mg/ml, 10µl test compound)	(d) Signal: Background: ratio (control = with no enhancer) (1 mg/ml, 10µl test compound)	(c) Increase in signal: background ratio (0.1 mg/ml, 10µl test compound)	(a) Decrease in background (without HRP with test cpd.)	(b) Increase in signal (with HRP, with test cpd.)	(c) Increase in signal: background ratio
OB(O)c1cc(N=Nc2cccc(C(F)(F)F)c2)ccc1O [Compound 1005]	N	Y	Y (Column (c) shows whether there was an increase in the signal:background ratio by over 25% of the control value (Y = yes)	2.7	N	Y	2.9	Y	N	N (N = no)	2.4 (2.1)	Y (Column (c) shows whether there was an increase in the signal:background ratio by over 25% of the control value (Y = yes)			
c1ccc([B-](c2ccccc2)(c2ccccc2)c2ccccc2)cc1 [Compound 1016, tetraphenylboron sodium]													Y	N	N (key: column (a) shows whether the test compound lowered the light output from the luminol-hydrogen peroxide solution (Y = yes; N = no)
boraxarophenanthrene [Compound 1014]	Y	N	N (N = no)	2.3	Y	N	1.6	Y	N	N (N = no)	1.8 (2.5)	N (N = no)			

Second part, led by results:

(a) Decrease in background (without HRP with test cpd.) (0.01 mg/ml, 10µl test compound)	(b) Increase in signal (with HRP, with test cpd.) (0.01 mg/ml, 10µl test compound)	(c) Increase in signal: background ratio (0.01 mg/ml, 10µl test compound)	(d) Signal: Background: ratio (control = with no enhancer) (0.01 mg/ml, 10µl test compound)	(a) Decrease in background (without HRP with test cpd.) (0.1 mg/ml, 10µl test compound)	(b) Increase in signal (with HRP, with test cpd.) (0.1 mg/ml, 10µl test compound)	(d) Signal: Background: ratio (control = with no enhancer) (0.1 mg/ml, 10µl test compound)	(a) Decrease in background (without HRP with test cpd.) (1 mg/ml, 10µl test compound)	(b) Increase in signal (with HRP, with test cpd.) (1 mg/ml, 10µl test compound)	(c) Increase in signal: background ratio (1 mg/ml, 10µl test compound)	(d) Signal: Background: ratio (control = with no enhancer) (1 mg/ml, 10µl test compound)	Molecule	(c) Increase in signal: background ratio (0.1 mg/ml, 10µl test compound)	(a) Decrease in background (without HRP with test cpd.)	(b) Increase in signal (with HRP, with test cpd.)	(c) Increase in signal: background ratio
Y	N	N (N = no)	2.1 (2.0)	Y	N		Y	N	N (N = no)		OB(O)c1ccc(B(O)O)cc1 [Compound 1035, 1,4-phenyldiboronic acid]	N (N = no)			
Y	N	N (N = no)	1.9	Y	N	2.5	Y	N	N (N = no)	0.6 (1.8)	Cc1ccccc1B(O)O [Compound 1009, 2-tolueneboronic acid]	Y (Column (c) shows whether there was an increase in the signal:background ratio by over 25% of the control value (Y = yes)			
